From PubChem BioAssay (NCI)
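All cell lines were grown in 96-well plates and treated with compound for 48 hours. TGI: concentration producing complete growth inhibition.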

Key:
Experiment in all cases: growth of human tumour cells (NCI), 48 h
786-0 renal = tested on: 786-0 renal
A498 renal = tested on: A498 renal
A549 NSCLC = tested on: A549 NSCLC
ACHN renal = tested on: ACHN renal
BT-549 breast = tested on: BT-549 breast
CAKI-1 renal = tested on: CAKI-1 renal
CCRF-CEM leukemia = tested on: CCRF-CEM leukemia
COLO 205 colon = tested on: COLO 205 colon
DU-145 prostate = tested on: DU-145 prostate
EKVX NSCLC = tested on: EKVX NSCLC
HCC-2998 colon = tested on: HCC-2998 colon
HCT-116 colon = tested on: HCT-116 colon
HCT-15 colon = tested on: HCT-15 colon
HL-60(TB) leukemia = tested on: HL-60(TB) leukemia
HOP-62 NSCLC = tested on: HOP-62 NSCLC
HOP-92 NSCLC = tested on: HOP-92 NSCLC
HS 578T breast = tested on: HS 578T breast
HT29 colon = tested on: HT29 colon
IGROV1 ovarian = tested on: IGROV1 ovarian
K-562 leukemia = tested on: K-562 leukemia
KM12 colon = tested on: KM12 colon
LOX IMVI melanoma = tested on: LOX IMVI melanoma
M14 melanoma = tested on: M14 melanoma
MALME-3M melanoma = tested on: MALME-3M melanoma
MCF7 breast = tested on: MCF7 breast
MDA-MB-231 breast = tested on: MDA-MB-231 breast
MDA-MB-435 = tested on: MDA-MB-435
MDA-N = tested on: MDA-N
MOLT-4 leukemia = tested on: MOLT-4 leukemia
NCI-H226 lung = tested on: NCI-H226 lung
NCI-H23 lung = tested on: NCI-H23 lung
NCI-H460 lung = tested on: NCI-H460 lung
NCI-H522 lung = tested on: NCI-H522 lung
NCI/ADR-RES ovarian = tested on: NCI/ADR-RES ovarian
OVCAR-3 ovarian = tested on: OVCAR-3 ovarian
OVCAR-4 ovarian = tested on: OVCAR-4 ovarian
OVCAR-5 ovarian = tested on: OVCAR-5 ovarian
OVCAR-8 ovarian = tested on: OVCAR-8 ovarian
PC-3 prostate = tested on: PC-3 prostate
RPMI-8226 leukemia = tested on: RPMI-8226 leukemia
RXF 393 renal = tested on: RXF 393 renal
SF-268 CNS = tested on: SF-268 CNS
SF-295 CNS = tested on: SF-295 CNS
SF-539 CNS = tested on: SF-539 CNS
SK-MEL-2 melanoma = tested on: SK-MEL-2 melanoma
SK-MEL-28 melanoma = tested on: SK-MEL-28 melanoma
SK-MEL-5 melanoma = tested on: SK-MEL-5 melanoma
SK-OV-3 ovarian = tested on: SK-OV-3 ovarian
SN12C renal = tested on: SN12C renal
SNB-19 CNS = tested on: SNB-19 CNS
SR leukemia = tested on: SR leukemia
SW-620 colon = tested on: SW-620 colon
T-47D breast = tested on: T-47D breast
TK-10 renal = tested on: TK-10 renal
U251 CNS = tested on: U251 CNS
UACC-257 melanoma = tested on: UACC-257 melanoma
UACC-62 melanoma = tested on: UACC-62 melanoma
UO-31 renal = tested on: UO-31 renal
SNB-75 CNS = tested on: SNB-75 CNS

Measured: TGI

O=c1c2ncn(CCCl)c2n(-c2ccccc2)c(=S)n1-c1ccccc1
> 100 µM: 786-0 renal | A498 renal | A549 NSCLC | ACHN renal | BT-549 breast | CAKI-1 renal | CCRF-CEM leukemia | COLO 205 colon | DU-145 prostate | EKVX NSCLC | HCC-2998 colon | HCT-116 colon | HCT-15 colon | HL-60(TB) leukemia | HOP-62 NSCLC | HOP-92 NSCLC | HS 578T breast | HT29 colon | IGROV1 ovarian | K-562 leukemia | KM12 colon | LOX IMVI melanoma | M14 melanoma | MALME-3M melanoma | MCF7 breast | MDA-MB-231 breast | MDA-MB-435 | MDA-N | MOLT-4 leukemia | NCI-H226 lung | NCI-H23 lung | NCI-H460 lung | NCI-H522 lung | NCI/ADR-RES ovarian | OVCAR-3 ovarian | OVCAR-4 ovarian | OVCAR-5 ovarian | OVCAR-8 ovarian | PC-3 prostate | RPMI-8226 leukemia | RXF 393 renal | SF-268 CNS | SF-295 CNS | SF-539 CNS | SK-MEL-2 melanoma | SK-MEL-28 melanoma | SK-MEL-5 melanoma | SK-OV-3 ovarian | SN12C renal | SNB-19 CNS | SR leukemia | SW-620 colon | T-47D breast | TK-10 renal | U251 CNS | UACC-257 melanoma | UACC-62 melanoma | UO-31 renal

NC(N)=N/N=C/c1ccc(O)c(C(=O)O)c1
> 100 µM: 786-0 renal | A498 renal | A549 NSCLC | ACHN renal | BT-549 breast | CAKI-1 renal | CCRF-CEM leukemia | COLO 205 colon | DU-145 prostate | HCC-2998 colon | HCT-116 colon | HCT-15 colon | HOP-62 NSCLC | HOP-92 NSCLC | HS 578T breast | HT29 colon | IGROV1 ovarian | K-562 leukemia | KM12 colon | LOX IMVI melanoma | M14 melanoma | MALME-3M melanoma | MCF7 breast | MDA-MB-231 breast | MDA-MB-435 | MDA-N | MOLT-4 leukemia | NCI-H226 lung | NCI-H23 lung | NCI-H460 lung | NCI-H522 lung | NCI/ADR-RES ovarian | OVCAR-3 ovarian | OVCAR-4 ovarian | OVCAR-5 ovarian | OVCAR-8 ovarian | PC-3 prostate | RPMI-8226 leukemia | RXF 393 renal | SF-268 CNS | SF-295 CNS | SF-539 CNS | SK-MEL-2 melanoma | SK-MEL-28 melanoma | SK-MEL-5 melanoma | SK-OV-3 ovarian | SNB-19 CNS | SNB-75 CNS | SR leukemia | SW-620 colon | T-47D breast | TK-10 renal | U251 CNS | UACC-257 melanoma | UACC-62 melanoma | UO-31 renal
